Assay results reported in ChEMBL document CHEMBL3885861, “Open TG-GATES”.

Species: Rattus norvegicus
Assay: Open TG-GATES - Regimen: Daily Repeat
Assay type: toxicity, organism-based, Sprague-Dawley
Set-up: regimen Daily Repeat, gender Male, age 6 weeks
Details: in vivo, po, 75 mg/kg, route gavage, dose level High; for APTT / Bas / Eos / Fbg / Hb / Ht / Lym / MCH / MCHC / MCV / Mono / Neu / PT / Plat / RBC / Ret / WBC: tissue Blood; for KIDNEY_L / KIDNEY_R / KIDNEY_TOTAL: tissue Kidney; for LIVER: tissue Liver; for A/G / ALP / ALT / AST / BUN / CRE / Ca / Cl / DBIL / GLC / IP / K / LDH / Na / PL / RALB / TBIL / TC / TG / TP / gamma-GTP: tissue Plasma

`NC1=NC(=O)C(c2ccccc2)O1` (configuration not stated) [PEMOLINE] gave a TERMINAL_BW (72 h, time 3 day) of 210.2 g, an APTT (72 h, time 3 day) of 16.1 s and a Bas (72 h, time 3 day) of 0%. For the same compound, the Eos (72 h, time 3 day) was 1%, the Fbg (72 h, time 3 day) was 378.8 mg/dL and the Hb (72 h, time 3 day) was 13.2 g/dL. For the same compound, the Ht (72 h, time 3 day) was 38.4%, the Lym (72 h, time 3 day) was 72.6% and the MCH (72 h, time 3 day) was 21.4 pg. It also gave an MCHC (72 h, time 3 day) of 34.3%, an MCV (72 h, time 3 day) of 62.4 fL and a Mono (72 h, time 3 day) of 4%. It also gave a Neu (72 h, time 3 day) of 21.4%, a PT (72 h, time 3 day) of 13.1 s and a Plat (72 h, time 3 day) of 116.2 x10_4/uL. The RBC (72 h, time 3 day) was 614.2 x10_4/ul, the Ret (72 h, time 3 day) was 5.7% and the WBC (72 h, time 3 day) was 96.9 x10_2/uL. It also gave a KIDNEY_L (72 h, time 3 day) of 1 g, a KIDNEY_R (72 h, time 3 day) of 1 g and a KIDNEY_TOTAL (72 h, time 3 day) of 1.9 g. For the same compound, the LIVER (72 h, time 3 day) was 9.5 g, the A/G (72 h, time 3 day) was 0.9 and the ALP (72 h, time 3 day) was 1189.4 IU/L. For the same compound, the ALT (72 h, time 3 day) was 40.6 IU/L, the AST (72 h, time 3 day) was 91.6 IU/L and the BUN (72 h, time 3 day) was 14.4 mg/dL. The CRE (72 h, time 3 day) was 0.2 mg/dL, the Ca (72 h, time 3 day) was 10.5 mg/dL and the Cl (72 h, time 3 day) was 106 meq/L. It also gave a DBIL (72 h, time 3 day) of 0.014 mg/dL, a GLC (72 h, time 3 day) of 162.2 mg/dL and an IP (72 h, time 3 day) of 7.4 mg/dL. The K (72 h, time 3 day) was 4 meq/L, the LDH (72 h, time 3 day) was 46.6 IU/L and the Na (72 h, time 3 day) was 142.6 meq/L. For the same compound, the PL (72 h, time 3 day) was 118.6 mg/dL, the RALB (72 h, time 3 day) was 2.6 g/dL and the TBIL (72 h, time 3 day) was 0.03 mg/dL. It also gave a TC (72 h, time 3 day) of 70.8 mg/dL, a TG (72 h, time 3 day) of 40.2 mg/dL and a TP (72 h, time 3 day) of 5.4 g/dL. For the same compound, the gamma-GTP (72 h, time 3 day) was 1 IU/L, the TERMINAL_BW ([…], time 7 day) was 237.7 g and the TERMINAL_BW ([…], time 14 day) was 305 g. The TERMINAL_BW ([…], time 28 day) was 376.6 g, the APTT ([…], time 7 day) was 16.7 s and the Bas ([…], time 7 day) was 0%. It also gave an Eos ([…], time 7 day) of 1%, a Fbg ([…], time 7 day) of 294.8 mg/dL and a Hb ([…], time 7 day) of 13.9 g/dL. It also gave a Ht ([…], time 7 day) of 40.7%, a Lym ([…], time 7 day) of 78% and an MCH ([…], time 7 day) of 21.9 pg. It also gave an MCHC ([…], time 7 day) of 34.2%, an MCV ([…], time 7 day) of 63.8 fL and a Mono ([…], time 7 day) of 3%. The Neu ([…], time 7 day) was 17.8%, the PT ([…], time 7 day) was 12.9 s and the Plat ([…], time 7 day) was 131.8 x10_4/uL. The RBC ([…], time 7 day) was 638.8 x10_4/ul, the Ret ([…], time 7 day) was 6.6% and the WBC ([…], time 7 day) was 88.3 x10_2/uL. For the same compound, the APTT ([…], time 14 day) was 16.9 s, the Bas ([…], time 14 day) was 0% and the Eos ([…], time 14 day) was 1.2%. The Fbg ([…], time 14 day) was 259.4 mg/dL, the Hb ([…], time 14 day) was 14.6 g/dL and the Ht ([…], time 14 day) was 41.8%. The Lym ([…], time 14 day) was 72.4%, the MCH ([…], time 14 day) was 21.1 pg and the MCHC ([…], time 14 day) was 34.8%. The MCV ([…], time 14 day) was 60.5 fL, the Mono ([…], time 14 day) was 2.8% and the Neu ([…], time 14 day) was 23.2%. The PT ([…], time 14 day) was 13 s, the Plat ([…], time 14 day) was 105.3 x10_4/uL and the RBC ([…], time 14 day) was 691.2 x10_4/ul. The Ret ([…], time 14 day) was 4.7%, the WBC ([…], time 14 day) was 89.3 x10_2/uL and the APTT ([…], time 28 day) was 18.6 s. The Bas ([…], time 28 day) was 0.4%, the Eos ([…], time 28 day) was 1% and the Fbg ([…], time 28 day) was 255.2 mg/dL. The Hb ([…], time 28 day) was 15.7 g/dL, the Ht ([…], time 28 day) was 44.2% and the Lym ([…], time 28 day) was 79.4%. It also gave an MCH ([…], time 28 day) of 20.8 pg, an MCHC ([…], time 28 day) of 35.6% and an MCV ([…], time 28 day) of 58.5 fL. The Mono ([…], time 28 day) was 2.8%, the Neu ([…], time 28 day) was 16.2% and the PT ([…], time 28 day) was 12.6 s. The Plat ([…], time 28 day) was 90.5 x10_4/uL, the RBC ([…], time 28 day) was 755.2 x10_4/ul and the Ret ([…], time 28 day) was 2.8%. The WBC ([…], time 28 day) was 90.3 x10_2/uL, the KIDNEY_L ([…], time 7 day) was 1.1 g and the KIDNEY_R ([…], time 7 day) was 1.1 g. For the same compound, the KIDNEY_TOTAL ([…], time 7 day) was 2.1 g, the KIDNEY_L ([…], time 14 day) was 1.3 g and the KIDNEY_R ([…], time 14 day) was 1.3 g. The KIDNEY_TOTAL ([…], time 14 day) was 2.6 g, the KIDNEY_L ([…], time 28 day) was 1.5 g and the KIDNEY_R ([…], time 28 day) was 1.4 g. The KIDNEY_TOTAL ([…], time 28 day) was 2.9 g, the LIVER ([…], time 7 day) was 10.9 g and the LIVER ([…], time 14 day) was 13.8 g. For the same compound, the LIVER ([…], time 28 day) was 16.2 g, the A/G ([…], time 7 day) was 0.9 and the ALP ([…], time 7 day) was 1601.8 IU/L. It also gave an ALT ([…], time 7 day) of 44 IU/L, an AST ([…], time 7 day) of 83.2 IU/L and a BUN ([…], time 7 day) of 15 mg/dL. It also gave a CRE ([…], time 7 day) of 0.2 mg/dL, a Ca ([…], time 7 day) of 10.6 mg/dL and a Cl ([…], time 7 day) of 105.8 meq/L. The DBIL ([…], time 7 day) was 0.015 mg/dL, the GLC ([…], time 7 day) was 174.8 mg/dL and the IP ([…], time 7 day) was 7.7 mg/dL. The K ([…], time 7 day) was 4.4 meq/L, the LDH ([…], time 7 day) was 65 IU/L and the Na ([…], time 7 day) was 142.5 meq/L. The PL ([…], time 7 day) was 128.2 mg/dL, the RALB ([…], time 7 day) was 2.6 g/dL and the TBIL ([…], time 7 day) was 0.025 mg/dL. For the same compound, the TC ([…], time 7 day) was 65.8 mg/dL, the TG ([…], time 7 day) was 65.5 mg/dL and the TP ([…], time 7 day) was 5.6 g/dL. The gamma-GTP ([…], time 7 day) was 1 IU/L, the A/G ([…], time 14 day) was 0.8 and the ALP ([…], time 14 day) was 1468 IU/L. It also gave an ALT ([…], time 14 day) of 39 IU/L, an AST ([…], time 14 day) of 79.8 IU/L and a BUN ([…], time 14 day) of 14.8 mg/dL. It also gave a CRE ([…], time 14 day) of 0.2 mg/dL, a Ca ([…], time 14 day) of 11.1 mg/dL and a Cl ([…], time 14 day) of 106 meq/L. For the same compound, the DBIL ([…], time 14 day) was 0.012 mg/dL, the GLC ([…], time 14 day) was 176.2 mg/dL and the IP ([…], time 14 day) was 8.1 mg/dL. It also gave a K ([…], time 14 day) of 4 meq/L, an LDH ([…], time 14 day) of 79.2 IU/L and a Na ([…], time 14 day) of 143.4 meq/L. It also gave a PL ([…], time 14 day) of 135 mg/dL, an RALB ([…], time 14 day) of 2.7 g/dL and a TBIL ([…], time 14 day) of 0.022 mg/dL. For the same compound, the TC ([…], time 14 day) was 69.2 mg/dL, the TG ([…], time 14 day) was 86.8 mg/dL and the TP ([…], time 14 day) was 5.9 g/dL. It also gave a gamma-GTP ([…], time 14 day) of 1 IU/L, an A/G ([…], time 28 day) of 0.8 and an ALP ([…], time 28 day) of 1096 IU/L. It also gave an ALT ([…], time 28 day) of 44.6 IU/L, an AST ([…], time 28 day) of 77.6 IU/L and a BUN ([…], time 28 day) of 16.4 mg/dL. For the same compound, the CRE ([…], time 28 day) was 0.2 mg/dL, the Ca ([…], time 28 day) was 11.3 mg/dL and the Cl ([…], time 28 day) was 105 meq/L. For the same compound, the DBIL ([…], time 28 day) was 0.024 mg/dL, the GLC ([…], time 28 day) was 179.2 mg/dL and the IP ([…], time 28 day) was 7.6 mg/dL. It also gave a K ([…], time 28 day) of 4 meq/L, an LDH ([…], time 28 day) of 81.4 IU/L and a Na ([…], time 28 day) of 143.6 meq/L. It also gave a PL ([…], time 28 day) of 126.8 mg/dL, an RALB ([…], time 28 day) of 2.8 g/dL and a TBIL ([…], time 28 day) of 0.034 mg/dL. It also gave a TC ([…], time 28 day) of 59 mg/dL, a TG ([…], time 28 day) of 132 mg/dL and a TP ([…], time 28 day) of 6.2 g/dL. The gamma-GTP ([…], time 28 day) was 1 IU/L.
